Assay results: patent US20230181535A1, “UBIQUITIN-LIGASE INHIBITORS FOR THE TREATMENT OF CANCER” (FUNDACIÓN PROFESOR NOVOA SANTOS, priority 2020, published 2023)

How the values were obtained:
HT-29 cells = assay: Phase-contrast cell phenotype, HT-29; assay type: cell-based, human
Procedure: MDCK, HEK293T, HepG2, MCF7 and ACHN cells were cultured in Dulbecco's Modified Eagles Medium (DMEM). MDCK stably expressing Hakai cells (Hakai-MDCK) were previously reported and were growth in DMEM with G418 (800 μg/ml). […] LoVo and PC-3 cells were cultured in F-12K Medium (Kaighn's Modification of Ham's F-12 Medium) and HT-29 and HCT116 cells in McCoy's 5a Medium Modified. 5637 cells were cultured in RPMI medium. All culture media were supplemented with 1% penicillin/streptomycin and 10% of heat-inactivated fetal bovine serum (FBS) at 37° C. in a humidified incubator with 5% CO2. Cells were monthly tested for mycoplasma contamination and used only for 1-3 months after defrosted. LoVo and HT29 cells were authenticated with the StemElite ID system (Promega). For phase-contrast images, culture cells were photographed with a Nikon Eclipse-TI microscope.

[1] = Hepatocyte stability, human; assay type: in vitro ADME; details: cryopreserved human hepatocytes in suspension, read-out: estimated half-life
Procedure: Test compound (final substrate concentration 3 μM; final DMSO concentration 0.25%) were pre-incubated at 37° C., prior to the addition of a suspension of cryopreserved hepatocytes (final cell density 0.5×10^6 viable cells/mL in Williams E media supplemented with 2 mM L glutamine and 25 mM HEPES) to initiate the reaction. The reactions were stopped with acetonitrile containing internal standard at the appropriate time points ([…]). The termination plates were centrifuged at 2500 rpm at 4° C. for 30 minute to precipitate the protein. Following the hepatocyte stability assays, the samples were utilized for metabolite profiling. Hepatocyte stability in mouse and human was performed by using the incubation of tested compound (3 μM) with cryopreserved hepatocytes in suspension. Samples were removed at 6 time points over the course of a 60 min experiment and remaining test compound at each time point was analysed by using LC-MS/MS. Then, data was analysed and an intrinsic clearance (CLint) with standard error and half-life (t½) reported.

For `O=C(O)c1ccc(-n2nnnc2SCC(=O)c2ccc([N+](=O)[O-])cc2)cc1` [Hakin-1, 4-(5-[2-(4-nitrophenyl)-2-oxoethyl]thiol-1H-tetrazol-1-yl)benzoic acid], the “cell phenotype by phase contrast” value (HT-29 cells) was “modestly induce an epithelial phenotype” and the half-life at 3 μM [1] was 2.33 h.
